The target in assay [1] is T1, mGluR5 (Rattus norvegicus, UniProt P31424). In words: IC50 column under 'Biological Activity' (assay not identified in the shown text; not the binding Ki).
Assay [2] has as its target T2, rat mGluR5 receptor (Rattus norvegicus, UniProt P31424).
T2 construct: expressed in transfected cells; host or cells: HEK-293
In words: [3H]-MPEP displacement binding assay, HEK-293 cell membranes expressing rat mGluR5. The settings on record: [3H]-MPEP displacement, read-out: Median Ki. Put shortly:
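Membranes from HEK-293 cells expressing rat mGluR5 (12-25 μg protein), incubated 60 min at room temperature with 4 nM [3H]-MPEP in 50 mM Tris pH 7.5, then filtered. Nonspecific binding defined with 10 μM MPEP.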

Assay [3] concerns the target T1, mGluR5. In words: IC50 column under 'Biological Activity' (assay not identified in the shown text; not the binding Ki). This is another data set of the same source.

The source of these data is patent US20090325964A1, “Piperazine Metabotropic Glutamate Receptor 5 (MGLUR5) Negative Allosteric Modulators For Anxiety/Depression” (Wyeth, priority 2008, published 2009).

SMILES strings stand for the structures. pIC50, pKi: −log10 of the molar value. Where two headings read alike, the source gives them in different places.

T1 sequence (P31424 21-1203): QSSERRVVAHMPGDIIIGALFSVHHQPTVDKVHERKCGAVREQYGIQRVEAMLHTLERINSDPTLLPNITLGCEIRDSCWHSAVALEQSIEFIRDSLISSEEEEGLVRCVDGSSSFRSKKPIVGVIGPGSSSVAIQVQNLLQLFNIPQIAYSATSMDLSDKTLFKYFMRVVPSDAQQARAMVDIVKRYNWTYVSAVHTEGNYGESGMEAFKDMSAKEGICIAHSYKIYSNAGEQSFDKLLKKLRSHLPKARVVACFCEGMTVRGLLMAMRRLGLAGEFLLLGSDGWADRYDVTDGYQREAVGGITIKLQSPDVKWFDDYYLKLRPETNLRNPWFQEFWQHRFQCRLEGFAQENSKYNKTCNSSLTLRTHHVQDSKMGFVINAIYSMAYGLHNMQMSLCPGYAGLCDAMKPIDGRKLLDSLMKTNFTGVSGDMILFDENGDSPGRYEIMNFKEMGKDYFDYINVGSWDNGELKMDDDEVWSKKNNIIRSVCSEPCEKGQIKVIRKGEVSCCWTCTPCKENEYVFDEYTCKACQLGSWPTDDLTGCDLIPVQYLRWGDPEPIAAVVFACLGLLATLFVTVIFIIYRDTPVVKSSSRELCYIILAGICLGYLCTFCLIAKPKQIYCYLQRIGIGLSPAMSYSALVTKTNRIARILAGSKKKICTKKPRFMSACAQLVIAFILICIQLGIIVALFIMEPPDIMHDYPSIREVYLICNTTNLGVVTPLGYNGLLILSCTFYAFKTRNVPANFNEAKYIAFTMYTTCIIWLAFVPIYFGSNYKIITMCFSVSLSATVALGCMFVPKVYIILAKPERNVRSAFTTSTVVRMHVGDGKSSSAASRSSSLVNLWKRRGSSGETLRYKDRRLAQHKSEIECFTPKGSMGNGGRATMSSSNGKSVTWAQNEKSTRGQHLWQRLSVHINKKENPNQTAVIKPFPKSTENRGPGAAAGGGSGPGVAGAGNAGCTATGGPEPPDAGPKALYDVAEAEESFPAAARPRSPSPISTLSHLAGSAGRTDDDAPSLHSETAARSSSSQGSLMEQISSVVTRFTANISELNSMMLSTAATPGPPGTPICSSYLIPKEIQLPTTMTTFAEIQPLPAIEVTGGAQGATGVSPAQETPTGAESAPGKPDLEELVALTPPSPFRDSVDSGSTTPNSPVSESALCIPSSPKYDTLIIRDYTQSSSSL
T2 sequence (P31424 21-1203): as above

The molecule `COc1ccc(C(=O)N2CCN(c3ncccn3)CC2)cc1C#Cc1cccc(C#N)c1` [Compound 361, 3-({2-methoxy-5-[(4-pyrimidin-2-ylpiperazin-1-yl)carbonyl]phenyl}ethynyl)benzonitrile] gave a pIC50 in assay [1] of 7.25. Besides, the negative-log Ki (pKi) in assay [2] (rat mGluR5) was 7.19.

`COc1ccc(C(=O)N2CCN(c3ncccn3)CC2)cc1C#Cc1ccc(F)cc1` [Compound 362, 2-(4-{3-[(4-fluorophenyl)ethynyl]-4-methoxybenzoyl}piperazin-1-yl)pyrimidine]: the pIC50 in assay [1] was 5.84. In addition, the pKi in assay [2] (rat mGluR5) is 7.17.

With `O=C(c1ccc(C(F)(F)F)c(C#Cc2ccccn2)c1)N1CCN(c2ccccn2)CC1` [Compound 369, 1-pyridin-2-yl-4-{[3-(pyridin-2-ylethynyl)-4-(trifluoromethyl)phenyl]carbonyl}piperazine], in assay [3], the pIC50 is 7.52. Also, the pKi in assay [2] (rat mGluR5 membranes) was 7.51.

For `COc1ccnc(N2CCN(C(=O)c3ccc(C(F)(F)F)c(C#Cc4ccccn4)c3)CC2)n1` [Compound 373, 4-methoxy-2-(4-{[3-(pyridin-2-ylethynyl)-4-(trifluoromethyl)phenyl]carbonyl}piperazin-1-yl)pyrimidine], the pIC50 in assay [3] is 7.47. In assay [2] (rat mGluR5 membranes), the pKi was 7.40.

`O=C(c1ccc(C(F)(F)F)c(C#Cc2ccccn2)c1)N1CCN(c2noc3ccccc23)CC1` [Compound 374, 3-(4-{[3-(pyridin-2-ylethynyl)-4-(trifluoromethyl)phenyl]carbonyl}piperazin-1-yl)-1,2-benzisoxazole] showed a pIC50 in assay [3] of 7.28. The pKi in assay [2] (rat mGluR5 membranes) was 8.40.

With `O=C(c1ccc(C(F)(F)F)c(C#Cc2ccccn2)c1)N1CCN(C(=O)c2ccco2)CC1` [Compound 375, 1-(furan-2-ylcarbonyl)-4-{[3-(pyridin-2-ylethynyl)-4-(trifluoromethyl)phenyl]carbonyl}piperazine], the pIC50 in assay [3] is 7.40. Besides, in assay [2] (rat mGluR5 membranes), the pKi is 7.54.

The molecule `O=C(c1ccc(C(F)(F)F)c(C#Cc2ccccn2)c1)N1CCN(c2nccs2)CC1` [Compound 378, 1-{[3-(pyridin-2-ylethynyl)-4-(trifluoromethyl)phenyl]carbonyl}-4-(1,3-thiazol-2-yl)piperazine] gave a pIC50 in assay [3] of 7.37. Also, the pKi in assay [2] (rat mGluR5 membranes) was 7.31.

`COc1nc(N2CCN(C(=O)c3ccc(OC(F)F)c(C#Cc4ccccn4)c3)CC2)ncc1Br` [Compound 382, 5-bromo-2-(4-{[4-(difluoromethoxy)-3-(pyridin-2-ylethynyl)phenyl]carbonyl}piperazin-1-yl)-4-methoxy pyrimidine] had a pIC50 in assay [3] of 6.98. Moreover, the pKi in assay [2] (rat mGluR5 membranes) was 7.46.

Molecule `O=C(c1ccc(OC(F)F)c(C#Cc2ccccn2)c1)N1CCN(c2nsc3ccccc23)CC1` [Compound 383, 3-(4-{[4-(difluoromethoxy)-3-(pyridin-2-ylethynyl)phenyl]carbonyl}piperazin-1-yl)-1,2-benzisothiazole] showed a pIC50 in assay [3] of 7.39. Besides, the negative-log Ki (pKi) in assay [2] (rat mGluR5 membranes) was 9.00.

With `O=C(c1ccc(OC(F)F)c(C#Cc2ccccn2)c1)N1CCN(c2noc3ccccc23)CC1` [Compound 384, 3-(4-{[4-(difluoromethoxy)-3-(pyridin-2-ylethynyl)phenyl]carbonyl}piperazin-1-yl)-1,2-benzisoxazole], the pIC50 in assay [3] was 7.80. Also, the negative-log Ki (pKi) in assay [2] (rat mGluR5 membranes) was 9.00.

As for `O=C(c1ccc(OC(F)F)c(C#Cc2ccccn2)c1)N1CCN(c2ccccn2)CC1` [Compound 385, 1-{[4-(Difluoromethoxy)-3-(pyridin-2-ylethynyl)phenyl]carbonyl}-4-pyridin-2-ylpiperazin], in assay [3], the pIC50 was 7.89. In assay [2] (rat mGluR5 membranes), the pKi was 8.15.

`O=C(c1ccc(Cl)c(C#Cc2ccccn2)c1)N1CCN(c2ccccn2)CC1` [Compound 386, 1-[4-chloro-3-(pyridin-2-ylethynyl)benzoyl]-4-pyridin-2-ylpiperazin]: in assay [3], the pIC50 was 7.41. In addition, the pKi in assay [2] (rat mGluR5 membranes) was 8.52.

`O=C(c1ccc(Cl)c(C#Cc2ccccn2)c1)N1CCN(c2ncccn2)CC1` [Compound 387, 2-{4-[4-chloro-3-(pyridin-2-ylethynyl)benzoyl]piperazin-1-yl}pyrimidine] had a pIC50 in assay [3] of 6.88. In addition, in assay [2] (rat mGluR5 membranes), the pKi was 8.00.
